Experimental data published in patent US8450479B2, “3-substituted-4-oxo-3,4-dihydro-imidazo[5,1-d][1,2,3,5-tetrazine-8-carboxylic acid amides and their use” (Pharminox Limited, priority 2007, dated 2013).
“And” between values parts separate entries of the source, which are not always exact repeats. Identical values can stand only once. Like-named read-outs stand apart in the source and are kept apart here.

Experiments:
Type in all cases: cell-based
[1] = tested on: Glioma SNB19M (MGMT+); assay: Clonogenic survival assay (Table 14, assay not named there)
Protocol: (§1) A clonogenic assay, which measures tumour cell survival and subsequent proliferative ability following drug exposure was used to verify that the cells remaining metabolically active following treatment with TMZ and new derivatives. See, e.g., Brown, J. M., et al., 1999, “Apoptosis, p53, and tumor cell sensitivity to anticancer agents”, Cancer Research, Vol. 59, No. 7, pp. 1391-1399.
(§2) Exponentially growing cells were seeded in triplicate at a density of 200 cells/well in 6 well plate and allowed to attach overnight and then exposed to increasing concentration of TMZ and test compounds (0, 5, 10, 100, 500, 1000 μM). After 18 hours, the plates were changed to drug free media and left to grow in the 37° C., 5% CO2 incubator. After 14 days, the plates were rinsed in PBS and fixed with pre-chilled methanol in room temperature for 20 minutes, and then stained with 0.5% methylene blue in 1:1 methanol/H2O (v/v) for 10 minutes and thoroughly washed in distilled water and air dried. Cell colonies containing >30 cells were counted. Growth inhibition by TMZ and test compounds was estimated by dividing the mean number of colonies under drug treatment by the mean number of colonies without drug treatment.

[2] = tested on: Glioma SNB19V (MGMT−); assay: as above
Protocol: as §1, §2

[3] = tested on: Glioma U373M (MGMT+); assay: MTT assay for 7-day toxicity assay
In short: (§3)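 MGMT-transfected or vector-control glioma cells were seeded at 650 cells/well, attached overnight, and exposed for 7 days at 37 °C to compound at final 0.5–1000 μM. Viability was read by MTT (0.4 mg/mL, 4 h) formazan absorbance, with a day-0 plate included.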

[4] = tested on: Glioma U373V (MGMT low); assay: MTT assay for 7-day toxicity assay
In short: as §3

[5] = tested on: Glioma SNB19M (MGMT+); assay: MTT assay for 7-day toxicity assay
In short: as §3

[6] = tested on: Glioma SNB19V (MGMT−); assay: MTT assay for 7-day toxicity assay
In short: as §3

[7] = 168 h, Glioma SNB19M (MGMT+), 7-day MTT, single determinations
[8] = Glioma SNB19V (MGMT−), 7-day MTT, single determinations
[9] = 168 h, Glioma U373M (MGMT+), 7-day MTT, single determinations, read-out: GI50
[10] = Glioma U373M (MGMT+), 7-day MTT, single determinations, read-out: GI50
[11] = 168 h, Glioma SNB19M (MGMT+), 7-day MTT, single determinations, read-out: GI50
[12] = Glioma SNB19M (MGMT+), 7-day MTT, single determinations, read-out: GI50
[13] = Glioma U373M (MGMT+), read-out: GI50
[14] = Glioma U373V (MGMT low), read-out: GI50
[15] = Glioma SNB19M (MGMT+), read-out: GI50
[16] = Glioma SNB19V (MGMT−), read-out: GI50

Question: `C[C@H](c1ccccc1)n1nnc2c(C(N)=O)ncn2c1=O` [BB-001, (R)-3-(-1-Phenylethyl)-8-carbamoylimidazotetrazin-4-one] was tested. Which GI50 [1] did it give?
Answer: The GI50 was 8.5 µM.

Question: What about the GI50 [2] of the same compound?
Answer: Its GI50 is 22.2 µM.

Question: What about the GI50 ([3]; 168 h, Glioma U373M (MGMT+), 7-day MTT, single determinations) of the same compound?
Answer: The GI50 was 67.1 µM.

Question: What about the GI50 ([3]; Glioma U373M (MGMT+), 7-day MTT, single determinations) of the same compound?
Answer: The GI50 was 79.6 µM.

Question: And the GI50 ([4]; 168 h, Glioma U373V (MGMT low), 7-day MTT, single determinations)?
Answer: The GI50 was 49 µM.

Question: And the GI50 ([4]; Glioma U373V (MGMT low), 7-day MTT, single determinations)?
Answer: The GI50 was 71.3 µM.

Question: What about the GI50 [5, 7] of the same compound?
Answer: Its GI50 is 46.1 µM.

Question: And the GI50 ([5]; Glioma SNB19M (MGMT+), 7-day MTT, single determinations)?
Answer: Its GI50 is 53.4 µM.

Question: What about the GI50 ([6]; 168 h, Glioma SNB19V (MGMT−), 7-day MTT, single determinations) of the same compound?
Answer: The GI50 was 33.6 µM.

Question: What about the GI50 [6, 8] of the same compound?
Answer: The GI50 was 31.8 µM.

Question: `C#CCn1nnc2c(C(N)=O)ncn2c1=O` [EE-001, 3-Propargyl-8-carbamoylimidazotetrazin-4-one] was tested. Which GI50 [1] did it give?
Answer: The GI50 was 7.8 µM.

Question: What about the GI50 [2] of the same compound?
Answer: Its GI50 is 7 µM.

Question: And the GI50 [3, 9]?
Answer: Its GI50 is 45.1 µM.

Question: And the GI50 [3, 10]?
Answer: Its GI50 is 42.8 µM and 24.6 µM and 31.7 µM.

Question: And the GI50 [5, 11]?
Answer: Its GI50 is 26.9 µM.

Question: And the GI50 [5, 12]?
Answer: The GI50 was 30.6 µM and 41.6 µM and 52.1 µM.

Question: Which GI50 [3, 9] does the source give for `CCOC(=O)Cn1nnc2c(C(N)=O)ncn2c1=O` [PX-016] here?
Answer: Its GI50 is 49.6 µM.

Question: And the GI50 [3, 10]?
Answer: Its GI50 is 62.5 µM and 54.7 µM.

Question: And the GI50 ([4]; 168 h, Glioma U373V (MGMT low), 7-day MTT, single determinations, read-out: GI50)?
Answer: The GI50 was 49.9 µM.

Question: What about the GI50 ([4]; Glioma U373V (MGMT low), 7-day MTT, single determinations, read-out: GI50) of the same compound?
Answer: Its GI50 is 59.6 µM and 73.8 µM and 69.5 µM.

Question: What about the GI50 [5, 11] of the same compound?
Answer: The GI50 was 66.7 µM.

Question: What about the GI50 [5, 12] of the same compound?
Answer: The GI50 was 54 µM and 61.7 µM and 61.8 µM.

Question: What about the GI50 ([6]; 168 h, Glioma SNB19V (MGMT−), 7-day MTT, single determinations, read-out: GI50) of the same compound?
Answer: Its GI50 is 55.2 µM.

Question: What about the GI50 ([6]; Glioma SNB19V (MGMT−), 7-day MTT, single determinations, read-out: GI50) of the same compound?
Answer: Its GI50 is 48.7 µM and 57.3 µM and 48.4 µM.

Question: For `COCn1nnc2c(C(N)=O)ncn2c1=O` [PX-020], which GI50 [1] is on record?
Answer: Its GI50 is 30 µM.

Question: What about the GI50 [2] of the same compound?
Answer: Its GI50 is 38.6 µM.

Question: And the GI50 [3, 13]?
Answer: The GI50 was 26.5 µM and 39.6 µM.

Question: What about the GI50 [4, 14] of the same compound?
Answer: Its GI50 is 21.3 µM and 22 µM and 30.2 µM and 30.4 µM.

Question: What about the GI50 [5, 15] of the same compound?
Answer: The GI50 was 28.7 µM and 26.6 µM and 43.4 µM.

Question: `C[Si](C)(C)CCOCn1nnc2c(C(N)=O)ncn2c1=O` [PX-021] was tested. Which GI50 [1] did it give?
Answer: Its GI50 is 22.1 µM.

Question: And the GI50 [2]?
Answer: The GI50 was 43.3 µM.

Question: What about the GI50 [3, 13] of the same compound?
Answer: The GI50 was 27.2 µM and 23.6 µM and 21.9 µM.

Question: What about the GI50 [4, 14] of the same compound?
Answer: The GI50 was 28.2 µM and 22.3 µM and 25.5 µM.

Question: And the GI50 [5, 15]?
Answer: The GI50 was 26.7 µM and 29.1 µM.

Question: What about the GI50 [6, 16] of the same compound?
Answer: Its GI50 is 36 µM and 26.9 µM and 26.8 µM.

Question: `NC(=O)c1ncn2c(=O)n(CCl)nnc12` [PX-030] was tested. Which GI50 [1] did it give?
Answer: Its GI50 is 31.5 µM.

Question: What about the GI50 [2] of the same compound?
Answer: The GI50 was 38.9 µM.

Question: And the GI50 [3, 13]?
Answer: The GI50 was 23.7 µM and 25.1 µM.

Question: What about the GI50 [4, 14] of the same compound?
Answer: The GI50 was 34.8 µM and 23.8 µM.

Question: What about the GI50 [5, 15] of the same compound?
Answer: The GI50 was 36.6 µM and 25.4 µM.

Question: And the GI50 [6, 16]?
Answer: The GI50 was 44.6 µM and 24.6 µM.

Question: Which results are given for `Cn1nnc2c(C(N)=O)ncn2c1=O` [TMZ, 3-Methyl-4-oxo-3,4-dihydro-imidazo[5,1-d][1,2,3,5]tetrazine-8-carboxylic acid amide, reference compound]?
Answer: GI50 [1]: 875 µM; GI50 ([1]; listed as Temozolomide): 834 µM; GI50 [2]: 32.2 µM; GI50 ([3]; Glioma U373M (MGMT+)): 369 µM; GI50 ([3]; read-out: TMZ GI50 Average, Glioma U373M (MGMT+), average of Table 1): 369 µM; GI50 ([4]; Glioma U373V (MGMT low)): 68 µM; GI50 ([4]; read-out: TMZ GI50 Average, Glioma U373V (MGMT low), average of Table 1): 68 µM; GI50 [5, 7]: 464 µM; GI50 ([5]; Glioma SNB19M (MGMT+)): 470 µM; GI50 ([5]; read-out: TMZ GI50 Average, Glioma SNB19M (MGMT+), average of Table 1): 470 µM; GI50 ([6]; Glioma SNB19V (MGMT−)): 35.7 µM; GI50 [6, 8]: 27.6 µM; GI50 ([6]; read-out: TMZ GI50 Average, Glioma SNB19V (MGMT−), average of Table 1): 35.7 µM

Question: Which GI50 [3, 13] does the source give for `C[S+]([O-])Cn1nnc2c(C(N)=O)ncn2c1=O` (centres unmarked) [UU-003, 3-Methanesulfinylmethyl-4-oxo-3,4-dihydro-imidazo[5,1-d][1,2,3,5]tetrazine-8-carboxylic acid amide] here?
Answer: Its GI50 is 4.6 µM and 8.6 µM and 7.6 µM and 8.2 µM.

Question: What about the GI50 [6, 16] of the same compound?
Answer: The GI50 was 30.3 µM and 38.1 µM and 25.3 µM and 21.8 µM.
